Source: US8969410B1, “Pharmaceutical composition for alleviating or treating gout and uses thereof” (Industrial Technology Research Institute, priority 2013, dated 2015)

Key:
Type in all cases: in vivo
[1] = tested on: leukocyte cell (CD45+ cells); assay: Mouse air pouch model of MSU-induced gout: leukocyte cell density in exudate by flow cytometry; conditions: for AVERAGE VALUES (normalized leukocyte cell density): Example 4, Table 2, topical paste 100 mg/mouse (5 mg actives total) 15 h prior to MSU, exudate 5 h after MSU; for INHIBITION RATE (leukocytes): Example 4, Table 2, vs blank control, topical paste 100 mg/mouse (5 mg actives total) 15 h prior to MSU
Text: (§1) Mouse Air pouch model: this mouse model may be referenced to the methods and the experimental details as in the published article “Role of S100A8 and S100A9 in neutrophil recruitment in response to monosodium urate monohydrate crystals in the air-pouch model of acute gouty arthritis”, Arthritis Rheum 2003 August, 48(8):2310-20. The full content of such document as a whole is incorporated by reference herein and made a part of this specification.
(§2) Before the experiment, the mice are shaved to remove back hair. At day 0 sterile filtered air (2 ml/per mouse) is injected through 0.22 μm microfilter to the back of each mouse subcutaneously, so that a pseudosynovial cavity is formed in each mouse. At day 3, an air booster (3 ml/mouse) is again given to each mouse, so that the air pouch is maintained round. Later, the mice are weighed and grouped so that the average weight of the mice in each group is about the same. At day 6 monosodium urate (MSU) crystal suspension (5 mg in 2 ml/per mouse) is injected into the air pouch. Topical application of the paste (100 mg paste/per mouse) is administrated 15 hours prior to MSU stimulation. At a specific time (5 hours) after the injection of MSU, the mice were euthanized with an excess of carbon dioxide, 2 ml PBS per mouse is injected into the air pouch, and the air pouch is carefully cut to collect the exudate. The collected exudate is subjected to the centrifugation at 1,000 rpm, 4° C. for 5 minutes, and the supernatant is then placed in a 96-well plate and stored at −20° C. An ELISA kit (purchased from R&D Systems) is used to analyze the contents of IL-1β and IL-6 in the exudate. The precipitate is resuspended and reacted with 1 ml red blood cell lysis buffer (RBC lysis buffer) for one minute to remove the red blood cells, followed by adding 1 ml PBS to terminate the reaction, centrifuged at 1,000 rpm, 25° C. for 5 minutes, and the supernatant is discarded. The precipitate is then resuspended in 1 ml PBS as the cell suspension and the cell suspension is filtered by filter membrane (BD Falcon 100 μm Nylon filter strainer) and the filtered cell suspension is dispensed into several tubes (0.25 ml/tube) for subsequent cell counting or for labelling with various differentiation antigen markers (such as cluster of differentiation (CD) markers). The flow cytometry is used for cell counting of the various cells.
(§3) In order to investigate the anti-gout efficacy of AG02-RA1 and AG04-RA1, either used alone or in combination, the experiments are performed to test AG02-RA1 alone, AG04-RA1 alone and the combination (s) of AG02-RA1:AG04-RA1 in the ratio of 50:50 (Composition Nos. 1, 2 and 3 as shown in Table 1). […]

[2] = tested on: neutrophil cell (CD45+/Ly6G+ cells); assay: Mouse air pouch model of MSU-induced gout: neutrophil cell density in exudate by flow cytometry; conditions: for AVERAGE VALUES (neutrophil cell density): Example 4, Table 3, topical paste 100 mg/mouse (5 mg actives total) 15 h prior to MSU, exudate 5 h after MSU; for INHIBITION RATE (neutrophils): Example 4, Table 3, vs blank control, topical paste 100 mg/mouse (5 mg actives total)
Text: as §1, §2, §3

[3] = tested on: interleukin-1β (mIL-1β); assay: Mouse air pouch model of MSU-induced gout: IL-1β in exudate by ELISA; conditions: Example 4, FIG. 3; topical paste 100 mg/mouse (5 mg actives total) 15 h prior to MSU; exudate 5 h after MSU
Text: as §1
(§4) Before the experiment, the mice are shaved to remove back hair. At day 0 sterile filtered air (2 ml/per mouse) is injected through 0.22 μm microfilter to the back of each mouse subcutaneously, so that a pseudosynovial cavity is formed in each mouse. At day 3, an air booster (3 ml/mouse) is again given to each mouse, so that the air pouch is maintained round. Later, the mice are weighed and grouped so that the average weight of the mice in each group is about the same. At day 6 monosodium urate (MSU) crystal suspension (5 mg in 2 ml/per mouse) is injected into the air pouch. Topical application of the paste (100 mg paste/per mouse) is administrated 15 hours prior to MSU stimulation. At a specific time (5 hours) after the injection of MSU, the mice were euthanized with an excess of carbon dioxide, 2 ml PBS per mouse is injected into the air pouch, and the air pouch is carefully cut to collect the exudate. […]

[4] = tested on: interleukin-6 (mIL-6); assay: Mouse air pouch model of MSU-induced gout: IL-6 in exudate by ELISA; conditions: Example 4, FIG. 4; topical paste 100 mg/mouse (5 mg actives total) 15 h prior to MSU; exudate 5 h after MSU
Text: as §1, §4

| Structure (SMILES) | AVERAGE VALUES (normalized leukocyte cell density) [1] | INHIBITION RATE (leukocytes) [1] | AVERAGE VALUES (neutrophil cell density) [2] | INHIBITION RATE (neutrophils) [2] | inhibition rate of interleukin-1β secretion amount [3] | inhibition rate of interleukin-6 secretion amount [4] |
| --- | --- | --- | --- | --- | --- | --- |
| C=C1C(=O)OC2/C=C(\C)CC3C=C(CC/C=C(\C)CCC12)C(=O)O3 (stereo not shown) [AG02-RA1, 3,7,11,15(17)-cembratetraene-16,2:19,6-diolide-3484-37-5(3E,12E)-3,12-dimethyl-8-methylene-6,18-dioxa-tricyclo[14.2.1.0.5,9]nonadeca-3,12,16(19)-triene-7,17-dione] | 1609 cells*10^3/ml | −100% | 133 cells*10^3/ml | 63% |  |  |
| CC(=O)OCC=Cc1ccc(OC(C)=O)cc1 [AG04-RA1, 4-(3-acetoxy-propenyl)-phenyl acetate] | 670 cells*10^3/ml | 17% | 205 cells*10^3/ml | 43% | > 50% | > 50% |
